Test results: US20250051851A1, “NOVEL BIOMARKER FOR DETECTION OF CANCER METASTASIS” (INDUSTRY-ACADEMIC COOPERATION FOUNDATION, YONSEI UNIVERSITY, priority 2021, published 2025)

System: IKZF1 and IKZF3
Assay: In vivo experiment using IKZF inhibitor: counting circulating tumor cells in melanoma mouse model
Settings: melanoma mouse model (B16F10 cells injected into paw pad); injection of the drug; FIG. 12

Nc1cccc2c1C(=O)N(C1CCC(=O)NC1=O)C2=O (stereo not shown) [pomalidomide]
number of circulating tumor cells: decreased
